# According to patent US6924306B2, “Method for treating ocular hypertension” (priority 2000, dated 2005):
# Where two headings read alike, the source gives them in different places.
# What was measured:
# [1] = target: T1, large-conductance calcium-activated potassium (maxi-K) channels from bovine aortic smooth muscle (Bos taurus, UniProt Q28204); assay: Patch clamp recordings of maxi-K channel currents in excised inside-out membrane patches; format: biochemical; conditions: for block of channel activity / effect on channel open probability: 1 μM
# T1 construct: membrane patches excised from cultured bovine aortic smooth muscle cells; endogenous in cells; host or cells: cultured bovine aortic smooth muscle cells
# Experimental: Pipettes were typically filled with solutions containing (mM): 150 KCl, 10 Hepes (4-(2-hydroxyethyl)-1-piperazine […]), 1 Mg, 0.01 Ca, and adjusted to pH 7.20 with 3.7 mM KOH. After forming a high resistance (>10^9 ohms) seal between the sarcolemmal membrane and the pipette, the pipette was withdrawn from the cell, forming an excised inside-out membrane patch. […] An AXOPATCH 1C amplifier (Axon Instruments, Foster City, Calif.) with a CV-4 headstage was used to control the voltage and to measure the currents flowing across the membrane patch. The input to the headstage was connected to the pipette solution with a Ag/AgCl wire, and the amplifier ground was connected to the bath solution with a Ag/AgCl wire covered with a tube filled with agar dissolved in 0.2 M KCl. Maxi-K channels were identified by their large single channel conductance (˜250 pS) and sensitivity of channel open probability to membrane potential and intracellular calcium concentration.
# Data were stored on a RACAL STORE 4DS FM tape recorder (Racal Recorders, Vienna, Va.) or on digital video tape using a video casette recorder after digitizing the signal with VR-10 (Instrutech Corp., Belmont, N.Y.) PCM video encoder. The signal was also recorded on chart paper with a GOULD 2400S chart recorder (Gould Inc., Cleveland, Ohio). For quantitative analysis, the data was played into a DEC 11-73 (Digital Equipment Corp., Maynard, Mass.) after digitization with a DT2782-8D1A analogue to digital converter (Data Translation Inc., Marlboro, Mass.), or played into a Mac IIx or Quadra 700 computer (Apple Computers) after digitization with an ITC-16 interface (Instrutech Corp., Belmont, N.Y.).
# [2] = target: T2, [125I]ChTX receptor in bovine aortic sarcolemma membrane vesicles (Bos taurus, UniProt Q28204); assay: [125I]ChTX binding assay with sarcolemma membrane vesicles; conditions: for inhibition at 10 µM: read-out: inhibition of [125I]ChTX binding
# T2 construct: bovine aortic sarcolemma membrane vesicles; from tissue; host or cells: bovine aortic sarcolemma membrane vesicles
# Experimental: The interaction of [^125I]ChTX with bovine aortic sarcolemma membrane vesicles was determined under conditions as described (Vazquez et al., 1989, J. Biol. Chem. 264, 20902-20909). Briefly, sarcolemma membrane vesicles were incubated in 12×75 polystyrene tubes with ca. 25 pM [^125I]ChTX (2200 Ci/mmol), in the absence or presence of test compound, in a media consisting of 20 mM NaCl, 20 mM Tris-HCl pH 7.4, 0.1% bovine serum albumin, 0.1% digitonin. Nonspecific binding was determined in the presence of 10 nM ChTX. Incubations were carried out at room temperature until ligand binding equilibrium is achieved at ca. 90 min. At the end of the incubation period, samples were diluted with 4 mL ice-cold 100 mM NaCl, 20 mM Hepes-Tris pH 7.4 and filtered through GF/C glass fiber filters that have been presoaked in 0.5% polyethylenimine. Filters were rinsed twice with 4 mL ice-cold quench solution. Radioactivity associated with filters was determined in a gamma counter. Specific binding data in the presence of each compound (difference between total binding and nonspecific binding) was assessed relative to an untreated control.
# [3] = concentrations from 1 nM to 100 μM
# T2 sequence (Q28204 whole entry): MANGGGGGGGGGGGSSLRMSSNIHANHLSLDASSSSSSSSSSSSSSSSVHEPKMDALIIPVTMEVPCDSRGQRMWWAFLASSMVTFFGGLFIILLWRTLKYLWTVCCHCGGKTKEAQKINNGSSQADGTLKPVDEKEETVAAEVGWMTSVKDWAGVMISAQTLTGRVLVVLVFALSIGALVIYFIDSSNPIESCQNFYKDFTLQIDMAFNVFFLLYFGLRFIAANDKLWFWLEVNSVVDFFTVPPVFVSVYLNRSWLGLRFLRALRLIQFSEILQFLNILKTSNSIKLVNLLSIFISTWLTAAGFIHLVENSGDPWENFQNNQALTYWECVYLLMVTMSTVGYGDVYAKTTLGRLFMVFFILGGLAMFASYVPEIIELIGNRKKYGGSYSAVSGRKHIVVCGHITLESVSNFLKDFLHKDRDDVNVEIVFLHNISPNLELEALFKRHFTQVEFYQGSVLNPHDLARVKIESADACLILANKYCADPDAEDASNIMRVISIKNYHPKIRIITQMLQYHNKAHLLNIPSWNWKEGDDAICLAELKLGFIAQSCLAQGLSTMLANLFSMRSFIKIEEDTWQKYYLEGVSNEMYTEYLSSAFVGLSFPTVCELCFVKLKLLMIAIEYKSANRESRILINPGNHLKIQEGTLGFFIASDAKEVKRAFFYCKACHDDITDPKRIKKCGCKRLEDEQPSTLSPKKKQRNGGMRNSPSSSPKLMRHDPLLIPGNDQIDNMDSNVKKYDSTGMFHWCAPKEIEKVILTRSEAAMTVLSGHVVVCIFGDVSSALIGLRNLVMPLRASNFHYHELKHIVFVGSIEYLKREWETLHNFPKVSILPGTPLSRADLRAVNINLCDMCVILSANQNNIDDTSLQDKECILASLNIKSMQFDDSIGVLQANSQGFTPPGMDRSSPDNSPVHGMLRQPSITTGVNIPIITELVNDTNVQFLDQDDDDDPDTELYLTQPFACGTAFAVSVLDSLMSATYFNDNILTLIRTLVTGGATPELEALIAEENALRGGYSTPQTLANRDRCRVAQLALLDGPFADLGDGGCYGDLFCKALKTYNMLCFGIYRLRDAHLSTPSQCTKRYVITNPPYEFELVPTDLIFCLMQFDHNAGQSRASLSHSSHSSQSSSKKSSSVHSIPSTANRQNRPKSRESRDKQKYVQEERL
# T2 sequence (Q28067 whole entry partner): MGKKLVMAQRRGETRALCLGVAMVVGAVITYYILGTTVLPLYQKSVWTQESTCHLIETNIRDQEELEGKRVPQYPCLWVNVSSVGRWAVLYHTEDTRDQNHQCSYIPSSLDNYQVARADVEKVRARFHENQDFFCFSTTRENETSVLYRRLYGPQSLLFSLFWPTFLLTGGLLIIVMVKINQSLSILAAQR
# T1 sequence (Q28204 whole entry): as the sequence (Q28204 whole entry) above
# T1 sequence (Q28067 whole entry partner): as the sequence (Q28067 whole entry partner) above
smiles,measurement,setting,value
CC(C)=CCOC(C)(C)[C@@H]1CC2OC23[C@H](CC[C@@]2(C)[C@H]3CC[C@H]3Cc4c([nH]c5ccccc45)[C@@]32C)O1 (stereo partly drawn) [Compound A],IC50,[1],~0.1 µM
same,strength as blocker of maxi-K channels compared with Compound C,[1],weaker
same,block of maxi-K channels,[1]; 10 nM,blocked a small fraction of channel activity
same,block of channel activity,[1]; 100 nM,approximately one half
same,block of channel activity / effect on channel open probability,[1],nearly all
same,inhibition at 10 µM,[2],2%
CC(C)=CCOC(C)(C)[C@H]1O[C@H]2CC[C@]3(C)[C@@]4(C)c5[nH]c6ccc(CC=C(C)C)cc6c5C[C@@H]4CC[C@@]3(O)C23OC3[C@@H]1O (stereo partly drawn) [Compound B],IC50,[1],< 0.001 µM
same,Ki,[1],< 0.001 µM
same,block of maxi-K channels,[1]; 1 nM,nearly complete block
CC(C)=CCc1cccc2[nH]c3c(c12)C[C@@H]1CC[C@@]2(O)C45OC4[C@@H]4OC(C=C(C)C)OC(C)(C)[C@H]4OC5=CC[C@]2(C)[C@@]31C (stereo partly drawn) [Compound C],IC50,[1],< 0.01 µM
same,block of maxi-K channels,[1]; 10 nM,rapid and complete block
same,reversal of block during washout,"[1]; 10 nM, brief (~10 min) washout",not reversed
same,inhibition at 10 µM,[2],29%
"CC(C)(O)[C@@H]1CC(O)C2(C(=O)O)C(CC[C@@]3(C)[C@H]2CC[C@H]2Cc4c([nH]c5ccccc45)[C@@]23C)O1 (stereo partly drawn) [Compound D, hydroxypaspalinic acid]",IC50,[1],~1 µM
same,strength as blocker of maxi-K channels compared with Compound C,[1],weaker
same,reduction in channel open probability,[1]; 10 nM,< 50%
same,block of channel activity / effect on channel open probability,[1],complete block was not observed
same,effect on [125I]ChTX binding,[2]; [3],did not have any effect
"COC(=O)C12C(O)C[C@@H](C(C)(C)O)OC1CC[C@@]1(C)[C@H]2CC[C@H]2Cc3c([nH]c4ccccc34)[C@@]21C (stereo partly drawn) [Compound E, methyl hydroxypaspalinate]",IC50,[1],> 10 µM
same,strength as blocker of maxi-K channels compared with Compound C,[1],weaker
same,block of channel activity / effect on channel open probability,[1],no significant effect
same,block of channel activity,"[1]; 10 μM, slowly increasing over 5-10 minutes",incomplete block
same,effect on [125I]ChTX binding,[2]; [3],did not affect
"CC1(C)ON=C2C=C3[C@H](CC[C@@]4(C)[C@@]3(O)CC[C@H]3Cc5c([nH]c6ccccc56)[C@@]34C)O[C@@H]21 [Compound F, Paxizoline]",decrease in channel activity,[1]; 10 nM,~50%
same,IC50,"[1]; excised inside-out patches, compound added to bath, read-out: [50% CHANNEL BLOCK]",~0.01 µM
same,effect on [125I]ChTX binding,[2]; concentrations above 5 μM,concentration-dependent inhibition
same,effect on amount of toxin bound to its receptor,[2]; range of 50 nM to 2 μM,small increase
same,maximum level of inhibition (saturation),[2]; tested from 1 nM to 100 μM,ca. 32 % control
CC(C)=CC1O[C@H]2C3OC34C(=CC[C@]3(C)[C@@]5(C)c6[nH]c7cccc(CC8OC8(C)C)c7c6C[C@@H]5CC[C@@]43O)O[C@@H]2C(C)(C)O1 (stereo partly drawn) [Compound G],IC50,[1],< 0.0001 µM
same,channels blocked,[1]; 0.1 nM,82%
same,channels blocked,[1]; 1 nM,98.6%
same,channel block,[1]; 10 nm,> 99%
same,inhibition at 10 µM,[2],35%
